Consider 27 molecules from ChEMBL document CHEMBL4028801, “A multifactorial approach to hepatobiliary transporter assessment enables improved therapeutic compound development” (Toxicol Sci, 2013).

Where a name gives a salt, the structure may show the parent alone.

One test addresses Bile salt export pump (Homo sapiens, UniProt O95342). Put plainly: Inhibition of human BSEP overexpressed in Sf9 cell membrane vesicles assessed as uptake of [3H]-taurocholate in presence of ATP measured after 15 to 20 mins by membrane vesicle transport assay. Format: ADME, cell-based.
The target in test [1] is ATP-binding cassette sub-family C member 2 (Homo sapiens, UniProt Q92887). Put plainly: Inhibition of human MRP2 overexpressed in Sf9 cell membrane vesicles assessed as uptake of [3H]-estradiol-17beta-D-glucuronide in presence of ATP and GSH measured after 20 mins by membrane vesicle transport assay.
ATP-binding cassette sub-family C member 2, sequence (Q92887 whole entry): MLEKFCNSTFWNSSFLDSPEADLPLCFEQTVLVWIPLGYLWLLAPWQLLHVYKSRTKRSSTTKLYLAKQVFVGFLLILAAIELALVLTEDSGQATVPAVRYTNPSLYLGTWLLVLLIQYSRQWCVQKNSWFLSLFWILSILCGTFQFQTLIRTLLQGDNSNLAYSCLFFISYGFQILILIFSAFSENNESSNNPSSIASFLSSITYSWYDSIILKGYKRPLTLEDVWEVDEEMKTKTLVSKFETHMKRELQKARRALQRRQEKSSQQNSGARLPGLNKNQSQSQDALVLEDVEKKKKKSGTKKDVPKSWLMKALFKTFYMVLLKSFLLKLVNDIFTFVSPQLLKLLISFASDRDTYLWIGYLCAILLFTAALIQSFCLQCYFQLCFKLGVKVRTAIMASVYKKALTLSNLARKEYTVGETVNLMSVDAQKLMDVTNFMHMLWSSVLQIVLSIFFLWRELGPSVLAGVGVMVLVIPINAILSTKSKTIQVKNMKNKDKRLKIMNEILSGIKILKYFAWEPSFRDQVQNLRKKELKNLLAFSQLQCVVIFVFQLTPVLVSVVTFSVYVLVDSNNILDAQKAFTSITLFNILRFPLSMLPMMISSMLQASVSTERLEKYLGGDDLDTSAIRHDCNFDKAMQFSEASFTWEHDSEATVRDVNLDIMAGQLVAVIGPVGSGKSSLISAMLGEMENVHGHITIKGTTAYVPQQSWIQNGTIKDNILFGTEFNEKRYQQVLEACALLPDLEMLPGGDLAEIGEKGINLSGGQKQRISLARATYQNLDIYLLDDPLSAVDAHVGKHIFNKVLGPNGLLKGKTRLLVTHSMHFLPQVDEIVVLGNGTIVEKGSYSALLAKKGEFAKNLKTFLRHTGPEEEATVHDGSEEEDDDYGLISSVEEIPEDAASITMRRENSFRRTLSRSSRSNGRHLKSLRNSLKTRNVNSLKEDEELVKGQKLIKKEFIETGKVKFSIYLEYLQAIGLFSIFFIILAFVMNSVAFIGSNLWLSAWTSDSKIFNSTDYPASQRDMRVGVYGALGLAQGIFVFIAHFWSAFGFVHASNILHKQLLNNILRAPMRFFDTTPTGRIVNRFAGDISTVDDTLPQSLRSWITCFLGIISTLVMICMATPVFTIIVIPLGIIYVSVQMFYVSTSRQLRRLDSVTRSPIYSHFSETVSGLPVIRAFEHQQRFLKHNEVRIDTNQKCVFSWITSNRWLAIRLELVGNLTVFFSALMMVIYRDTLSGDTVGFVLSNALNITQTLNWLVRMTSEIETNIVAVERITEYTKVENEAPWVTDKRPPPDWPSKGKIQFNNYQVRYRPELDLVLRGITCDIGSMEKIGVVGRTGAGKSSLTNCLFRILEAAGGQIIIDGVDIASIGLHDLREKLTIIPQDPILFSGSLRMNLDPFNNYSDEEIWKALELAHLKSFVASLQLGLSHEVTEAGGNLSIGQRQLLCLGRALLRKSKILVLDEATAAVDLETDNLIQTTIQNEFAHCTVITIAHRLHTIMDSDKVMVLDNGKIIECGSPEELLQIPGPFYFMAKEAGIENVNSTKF
Test [2] addresses ATP-binding cassette sub-family C member 3 (Homo sapiens, UniProt O15438). Nature of the test: Inhibition of human MRP3 overexpressed in Sf9 insect cell membrane vesicles assessed as uptake of [3H]-estradiol-17beta-D-glucuronide in presence of ATP and GSH measured after 10 mins by membrane vesicle transport assay. Format: ADME, cell-based.
Test [3] has as its target T1, ATP-binding cassette sub-family C member 4 (Homo sapiens, UniProt O15439).
T1 sequence (O15439 whole entry): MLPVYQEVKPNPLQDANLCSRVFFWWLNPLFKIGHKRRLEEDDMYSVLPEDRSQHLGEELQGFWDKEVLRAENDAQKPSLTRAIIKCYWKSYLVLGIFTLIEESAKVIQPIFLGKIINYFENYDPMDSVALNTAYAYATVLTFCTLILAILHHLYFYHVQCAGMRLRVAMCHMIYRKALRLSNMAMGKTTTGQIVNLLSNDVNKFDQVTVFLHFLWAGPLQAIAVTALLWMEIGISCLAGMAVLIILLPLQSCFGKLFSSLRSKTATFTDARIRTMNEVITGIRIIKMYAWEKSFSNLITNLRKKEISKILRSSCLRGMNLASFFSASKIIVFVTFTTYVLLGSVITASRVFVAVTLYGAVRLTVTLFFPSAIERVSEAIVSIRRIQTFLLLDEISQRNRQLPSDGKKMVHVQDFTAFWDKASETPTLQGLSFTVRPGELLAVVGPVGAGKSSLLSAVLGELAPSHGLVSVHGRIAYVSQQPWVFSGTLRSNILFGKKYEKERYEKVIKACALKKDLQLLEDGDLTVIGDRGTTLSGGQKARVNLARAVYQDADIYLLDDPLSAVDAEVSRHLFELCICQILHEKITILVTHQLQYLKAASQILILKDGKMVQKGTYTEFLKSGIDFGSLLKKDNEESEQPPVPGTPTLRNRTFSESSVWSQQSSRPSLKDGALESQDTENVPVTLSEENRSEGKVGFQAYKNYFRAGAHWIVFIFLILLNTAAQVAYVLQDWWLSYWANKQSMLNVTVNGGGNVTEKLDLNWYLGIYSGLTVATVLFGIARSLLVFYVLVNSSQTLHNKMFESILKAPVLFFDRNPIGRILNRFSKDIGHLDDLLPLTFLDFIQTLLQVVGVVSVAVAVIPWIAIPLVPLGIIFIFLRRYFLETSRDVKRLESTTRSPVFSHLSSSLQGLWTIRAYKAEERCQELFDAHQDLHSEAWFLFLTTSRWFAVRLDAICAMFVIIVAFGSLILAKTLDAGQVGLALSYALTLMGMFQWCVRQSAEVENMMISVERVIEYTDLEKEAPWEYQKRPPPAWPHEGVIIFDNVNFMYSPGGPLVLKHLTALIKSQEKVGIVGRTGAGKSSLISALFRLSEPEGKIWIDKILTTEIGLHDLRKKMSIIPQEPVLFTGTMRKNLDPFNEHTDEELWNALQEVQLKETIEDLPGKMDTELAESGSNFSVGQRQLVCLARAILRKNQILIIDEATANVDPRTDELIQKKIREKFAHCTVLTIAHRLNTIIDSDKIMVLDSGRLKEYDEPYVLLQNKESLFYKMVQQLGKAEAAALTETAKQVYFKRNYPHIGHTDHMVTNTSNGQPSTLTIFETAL
Put plainly: Inhibition of human MRP4 overexpressed in Sf9 cell membrane vesicles assessed as uptake of [3H]-estradiol-17beta-D-glucuronide in presence of ATP and GSH measured after 20 mins by membrane vesicle transport assay. Format: ADME, cell-based.

Bile salt export pump, sequence (O95342 whole entry): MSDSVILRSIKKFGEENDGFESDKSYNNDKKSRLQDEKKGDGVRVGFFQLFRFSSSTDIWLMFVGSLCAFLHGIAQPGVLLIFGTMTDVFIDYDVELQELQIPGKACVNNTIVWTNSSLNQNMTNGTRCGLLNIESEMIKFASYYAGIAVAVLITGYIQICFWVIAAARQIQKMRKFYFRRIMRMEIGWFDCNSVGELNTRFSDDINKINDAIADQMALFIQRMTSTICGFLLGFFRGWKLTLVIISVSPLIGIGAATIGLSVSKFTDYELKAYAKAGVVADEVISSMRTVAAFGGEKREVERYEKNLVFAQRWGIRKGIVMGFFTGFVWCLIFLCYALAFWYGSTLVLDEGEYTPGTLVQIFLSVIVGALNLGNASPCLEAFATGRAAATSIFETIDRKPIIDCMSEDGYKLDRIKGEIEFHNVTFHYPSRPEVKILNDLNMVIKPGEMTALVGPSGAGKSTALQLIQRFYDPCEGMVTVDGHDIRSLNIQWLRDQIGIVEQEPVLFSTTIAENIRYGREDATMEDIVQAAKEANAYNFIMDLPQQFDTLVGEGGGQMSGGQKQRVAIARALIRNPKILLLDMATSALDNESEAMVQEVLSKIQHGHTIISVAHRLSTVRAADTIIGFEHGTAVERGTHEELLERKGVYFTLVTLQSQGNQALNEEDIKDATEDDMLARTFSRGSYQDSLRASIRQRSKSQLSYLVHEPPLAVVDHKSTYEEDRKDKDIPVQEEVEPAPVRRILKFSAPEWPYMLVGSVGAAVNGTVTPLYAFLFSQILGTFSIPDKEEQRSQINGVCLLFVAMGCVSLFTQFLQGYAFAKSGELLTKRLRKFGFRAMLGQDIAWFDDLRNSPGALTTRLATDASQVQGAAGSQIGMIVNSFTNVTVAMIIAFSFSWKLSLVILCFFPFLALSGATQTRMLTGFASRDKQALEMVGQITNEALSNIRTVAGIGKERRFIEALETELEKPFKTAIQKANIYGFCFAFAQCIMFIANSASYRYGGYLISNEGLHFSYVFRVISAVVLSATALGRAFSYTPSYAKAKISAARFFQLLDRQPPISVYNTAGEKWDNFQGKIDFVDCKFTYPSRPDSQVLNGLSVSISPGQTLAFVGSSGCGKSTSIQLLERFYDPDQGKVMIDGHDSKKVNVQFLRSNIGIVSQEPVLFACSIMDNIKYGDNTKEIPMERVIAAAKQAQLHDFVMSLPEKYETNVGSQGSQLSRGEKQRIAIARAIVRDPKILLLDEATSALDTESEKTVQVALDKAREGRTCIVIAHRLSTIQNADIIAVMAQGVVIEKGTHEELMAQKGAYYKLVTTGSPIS
ATP-binding cassette sub-family C member 3, sequence (O15438 whole entry): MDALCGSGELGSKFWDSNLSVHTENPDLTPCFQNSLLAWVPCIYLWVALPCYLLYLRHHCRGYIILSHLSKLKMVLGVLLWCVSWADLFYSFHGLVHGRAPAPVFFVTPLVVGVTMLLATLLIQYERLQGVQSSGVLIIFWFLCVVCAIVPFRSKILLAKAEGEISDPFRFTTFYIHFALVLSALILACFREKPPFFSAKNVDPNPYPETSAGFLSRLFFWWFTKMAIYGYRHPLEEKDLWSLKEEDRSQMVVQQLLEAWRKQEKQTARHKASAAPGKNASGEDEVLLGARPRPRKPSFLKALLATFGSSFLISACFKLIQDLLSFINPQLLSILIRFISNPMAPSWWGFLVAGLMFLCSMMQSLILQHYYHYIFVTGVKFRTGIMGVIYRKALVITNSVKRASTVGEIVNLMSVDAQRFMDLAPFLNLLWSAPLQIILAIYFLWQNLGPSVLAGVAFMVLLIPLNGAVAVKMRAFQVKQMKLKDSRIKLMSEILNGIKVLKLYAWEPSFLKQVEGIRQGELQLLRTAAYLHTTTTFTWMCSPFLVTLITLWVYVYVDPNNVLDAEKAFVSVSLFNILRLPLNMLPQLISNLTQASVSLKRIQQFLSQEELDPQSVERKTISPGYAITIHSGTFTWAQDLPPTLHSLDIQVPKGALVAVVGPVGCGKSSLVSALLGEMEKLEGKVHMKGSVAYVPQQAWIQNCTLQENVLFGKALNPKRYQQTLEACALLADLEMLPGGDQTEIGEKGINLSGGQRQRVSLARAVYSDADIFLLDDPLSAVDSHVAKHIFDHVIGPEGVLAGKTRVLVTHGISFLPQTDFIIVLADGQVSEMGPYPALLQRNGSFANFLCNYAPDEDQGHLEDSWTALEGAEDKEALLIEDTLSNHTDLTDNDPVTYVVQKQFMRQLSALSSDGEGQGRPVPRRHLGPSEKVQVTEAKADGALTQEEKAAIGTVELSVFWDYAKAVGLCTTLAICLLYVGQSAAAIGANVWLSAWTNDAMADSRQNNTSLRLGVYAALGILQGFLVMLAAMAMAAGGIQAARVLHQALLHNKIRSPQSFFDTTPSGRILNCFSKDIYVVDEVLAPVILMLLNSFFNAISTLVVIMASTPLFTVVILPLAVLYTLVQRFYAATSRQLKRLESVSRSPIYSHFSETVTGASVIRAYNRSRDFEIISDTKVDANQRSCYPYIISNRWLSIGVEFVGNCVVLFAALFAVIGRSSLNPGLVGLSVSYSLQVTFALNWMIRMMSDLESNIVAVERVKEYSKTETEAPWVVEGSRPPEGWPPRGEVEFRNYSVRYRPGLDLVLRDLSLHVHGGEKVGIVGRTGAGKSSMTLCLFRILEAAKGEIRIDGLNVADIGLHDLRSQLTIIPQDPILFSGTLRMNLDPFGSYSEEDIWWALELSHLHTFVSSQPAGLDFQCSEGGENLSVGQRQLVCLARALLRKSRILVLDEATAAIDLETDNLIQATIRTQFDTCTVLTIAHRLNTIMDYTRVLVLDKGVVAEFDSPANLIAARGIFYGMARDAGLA

A word on the IC50: it is the midpoint of a concentration-inhibition curve. In the case of `CN(C)CCCC1(c2ccc(F)cc2)OCc2cc(C#N)ccc21` (stereo not drawn) [CITALOPRAM], the IC50 (on Bile salt export pump; in test [1]; in test [2]; in test [3]) was > 133 µM in each case.

Take `Nc1nc(Cl)nc2c1ncn2[C@H]1C[C@H](O)[C@@H](CO)O1` [CLADRIBINE]: the half-maximal inhibitory concentration (IC50) (at Bile salt export pump; in test [1]; in test [2]; in test [3]) was > 133 µM each time.

On to `CC[C@H]1OC(=O)[C@H](C)[C@@H](O[C@H]2C[C@@](C)(OC)[C@@H](O)[C@H](C)O2)[C@H](C)[C@@H](O[C@@H]2O[C@H](C)C[C@H](N(C)C)[C@H]2O)[C@](C)(OC)C[C@@H](C)C(=O)[C@H](C)[C@@H](O)[C@]1(C)O` [CLARITHROMYCIN], for which the 50% inhibitory concentration (IC50) (at Bile salt export pump; in test [1]; in test [2]; in test [3]) was > 133 µM throughout.

For `Oc1c(I)cc(Cl)c2cccnc12` [CLIOQUINOL], the IC50 (on Bile salt export pump; in test [1]; in test [2]; in test [3]) was > 133 µM each time.

With `CN1C(=O)CC(=O)N(c2ccccc2)c2cc(Cl)ccc21` [CLOBAZAM], the 50% inhibitory concentration (IC50) (on Bile salt export pump; in test [1]; in test [2]; in test [3]) was > 133 µM each time.

In the case of `Nc1nc(Cl)nc2c1ncn2[C@@H]1O[C@H](CO)[C@@H](O)[C@@H]1F` [CLOFARABINE], the concentration for half-maximal inhibition (IC50) (on Bile salt export pump; in test [1]; in test [2]; in test [3]) was > 133 µM throughout.

As to `CCN(CC)CCOc1ccc(C(=C(Cl)c2ccccc2)c2ccccc2)cc1` [CLOMIPHENE], the IC50 (on Bile salt export pump; in test [1]; in test [2]; in test [3]) was > 133 µM in each case.

`C[C@@H]1CCC[C@H](C)N1NC(=O)c1ccc(Cl)c(S(N)(=O)=O)c1` [CLOPAMIDE]: the concentration for half-maximal inhibition (IC50) (at Bile salt export pump; in test [1]; in test [2]; in test [3]) was > 133 µM in each case.

Turning to `COC(=O)[C@H](c1ccccc1Cl)N1CCc2sccc2C1` [CLOPIDOGREL BISULFATE], the half-inhibitory concentration (IC50) at Bile salt export pump is 72 µM; in test [1], > 133 µM; in test [2] it was > 133 µM; in test [3], > 133 µM.

As to `O=C(O)CCC/C=C\CC1C(O)CC(O)C1/C=C/C(O)COc1cccc(Cl)c1` (stereo not drawn) [CLOPROSTENOL SODIUM], the IC50 at Bile salt export pump is > 133 µM; in test [1], > 133 µM; in test [2], > 133 µM; in test [3], 1.9 µM.

Regarding `CN1CCN(C2=Nc3cc(Cl)ccc3Nc3ccccc32)CC1` [CLOZAPINE], the IC50 (at Bile salt export pump; in test [1]; in test [2]; in test [3]) was > 133 µM each time.

Take `O=P1(N(CCCl)CCCl)NCCCO1` (stereo not drawn) [CYCLOPHOSPHAMIDE ANHYDROUS]: the 50% inhibitory concentration (IC50) (at Bile salt export pump; in test [1]; in test [2]; in test [3]) was > 133 µM throughout.

`CN(C)/N=N/c1[nH]cnc1C(N)=O` [DACARBAZINE]: the half-inhibitory concentration (IC50) (at Bile salt export pump; in test [1]; in test [2]; in test [3]) was > 133 µM throughout.

Take `Cn1c(=O)n(-c2ccc(C(C)(C)C#N)cc2)c2c3cc(-c4cnc5ccccc5c4)ccc3ncc21` [DACTOLISIB]: the IC50 on Bile salt export pump is 7.9 µM; in test [1], > 133 µM; in test [2] it was > 133 µM; in test [3], > 133 µM.

With `CCCCCCCCCC(=O)N[C@@H](Cc1c[nH]c2ccccc12)C(=O)N[C@H](CC(N)=O)C(=O)N[C@@H](CC(=O)O)C(=O)N[C@@H]1C(=O)NCC(=O)N[C@@H](CCCN)C(=O)N[C@@H](CC(=O)O)C(=O)N[C@H](C)C(=O)N[C@@H](CC(=O)O)C(=O)NCC(=O)N[C@H](CO)C(=O)N[C@@H]([C@H](C)CC(=O)O)C(=O)N[C@@H](CC(=O)c2ccccc2N)C(=O)O[C@@H]1C` [DAPTOMYCIN], the 50% inhibitory concentration (IC50) at Bile salt export pump is > 133 µM; in test [1] it was 29.1 µM; in test [2], > 133 µM; in test [3], > 133 µM.

In the case of `Nc1ncn([C@H]2C[C@H](O)[C@@H](CO)O2)c(=O)n1` [DECITABINE], the 50% inhibitory concentration (IC50) (at Bile salt export pump; in test [1]; in test [2]; in test [3]) was > 133 µM throughout.

With `CNCCCN1c2ccccc2CCc2ccccc21` [DESIPRAMINE], the half-inhibitory concentration (IC50) (on Bile salt export pump; in test [1]; in test [2]; in test [3]) was > 133 µM throughout.

As to `NC(=O)CC[C@@H]1NC(=O)[C@H](Cc2ccccc2)NC(=O)[C@H](Cc2ccc(O)cc2)NC(=O)CCSSC[C@@H](C(=O)N2CCC[C@H]2C(=O)N[C@H](CCCN=C(N)N)C(=O)NCC(N)=O)NC(=O)[C@H](CC(N)=O)NC1=O` [DESMOPRESSIN ACETATE], the 50% inhibitory concentration (IC50) (on Bile salt export pump; in test [1]; in test [2]; in test [3]) was > 133 µM in each case.

Take `C[C@@H]1C[C@H]2[C@@H]3CCC4=CC(=O)C=C[C@]4(C)[C@@]3(F)[C@@H](O)C[C@]2(C)[C@@]1(O)C(=O)CO` [DEXAMETHASONE]: the 50% inhibitory concentration (IC50) (at Bile salt export pump; in test [1]; in test [2]; in test [3]) was > 133 µM in each case.

`CN(C)CC[C@@H](c1ccc(Cl)cc1)c1ccccn1` [DEXCHLORPHENIRAMINE MALEATE]: the IC50 (on Bile salt export pump; in test [1]; in test [2]; in test [3]) was > 133 µM each time.

Turning to `Cc1c(OCC(F)(F)F)ccnc1C[S@@+]([O-])c1nc2ccccc2[nH]1` [DEXLANSOPRAZOLE], the half-inhibitory concentration (IC50) (at Bile salt export pump; in test [1]; in test [2]; in test [3]) was > 133 µM in each case.

In the case of `CC(=O)Oc1cccc2c1C(=O)c1c(OC(C)=O)cc(C(=O)O)cc1C2=O` [DIACEREIN], the IC50 was > 133 µM on Bile salt export pump, > 133 µM in test [1], > 133 µM in test [2] and 6.4 µM in test [3].

In the case of `CC(=O)Nc1c(I)c(NC(C)=O)c(I)c(C(=O)O)c1I` [DIATRIZOIC ACID], the IC50 (at Bile salt export pump; in test [1]; in test [2]; in test [3]) was > 133 µM throughout.

In the case of `CC1=NS(=O)(=O)c2cc(Cl)ccc2N1` [DIAZOXIDE], the IC50 (on Bile salt export pump; in test [1]; in test [2]; in test [3]) was > 133 µM throughout.

Regarding `C[C@H]1O[C@@H](O[C@H]2[C@@H](O)C[C@H](O[C@H]3[C@@H](O)C[C@H](O[C@H]4CC[C@@]5(C)[C@H](CC[C@@H]6[C@@H]5CC[C@]5(C)[C@@H](C7=CC(=O)OC7)CC[C@]65O)C4)O[C@@H]3C)O[C@@H]2C)C[C@H](O)[C@@H]1O` [DIGITOXIN], the 50% inhibitory concentration (IC50) on Bile salt export pump is 31 µM; in test [1] it was > 133 µM; in test [2], > 133 µM; in test [3], > 133 µM.

On to `CCCCC[C@H](O)/C=C/[C@@H]1[C@@H](C/C=C\CCCC(=O)O)[C@@H](O)C[C@H]1O` [DINOPROST TROMETHAMINE], for which the IC50 at Bile salt export pump is […]; in test [1], […]; in test [2], […]; in test [3] it was 7.1 µM.

On to `CC(C)N(CCC(C(N)=O)(c1ccccc1)c1ccccn1)C(C)C` (stereo not drawn) [DISOPYRAMIDE], for which the IC50 (on Bile salt export pump; in test [1]; in test [2]; in test [3]) was > 133 µM each time.
